B1: Solute carrier family 22 member 3 (Rattus norvegicus) (protein)
chain: MPTFDQALRKAGEFGRFQRRVFLLLCLTGVTFAFLFVGVVFLGSQPDYYWCRGPRATALAERCAWSPEEEWNLTTPELHVPAERRGQGHCHRYLLEDTNTSSELSCDPLAAFPNRSAPLVPCSGDWRYVETHSTIVSQFDLVCGNAWMLDLTQAILNLGFLAGAFTLGYAADRYGRLIVYLISCFGVGITGVVVAFAPNFSVFVIFRFLQGVFGKGAWMTCFVIVTEIVGSKQRRIVGIVIQMFFTLGIIILPGIAYFTPSWQGIQLAISLPSFLFLLYYWVVPESPRWLITRKQGEKALQILRRVAKCNGKHLSSNYSEITVTDEEVSNPSCLDLVRTPQMRKCTLILMFAWFTSAVVYQGLVMRLGLIGGNLYMDFFISGLVELPGALLILLTIERLGRRLPFAASNIVAGVSCLVTAFLPEGIPWLRTTVATLGRLGITMAFEIVYLVNSELYPTTLRNFGVSLCSGLCDFGGIIAPFLLFRLAAIWLELPLIIFGILASVCGGLVMLLPETKGIALPETVEDVEKLGSSQLHQCGRKKKTQVSTSNV

Columns and labels:
[1] = target: T1, Solute carrier family 22 member 3 (Rattus norvegicus, UniProt O88446); assay: TP_TRANSPORTER: inhibition of MPP+ uptake (MPP+: 1 uM) in OCT3-expressing HRPE cells; format: functional, cell-based
T1 sequence (O88446 whole entry): B1 chain

[2] = target: T2, Solute carrier family 22 member 1 (Rattus norvegicus, UniProt Q63089); assay: TP_TRANSPORTER: inhibition of TEA uptake (TEA: 20 uM, Corticosterone: 100 uM) in OCT1-expressing HRPE cells; format: functional, cell-based; conditions: human
T2 sequence (Q63089 whole entry): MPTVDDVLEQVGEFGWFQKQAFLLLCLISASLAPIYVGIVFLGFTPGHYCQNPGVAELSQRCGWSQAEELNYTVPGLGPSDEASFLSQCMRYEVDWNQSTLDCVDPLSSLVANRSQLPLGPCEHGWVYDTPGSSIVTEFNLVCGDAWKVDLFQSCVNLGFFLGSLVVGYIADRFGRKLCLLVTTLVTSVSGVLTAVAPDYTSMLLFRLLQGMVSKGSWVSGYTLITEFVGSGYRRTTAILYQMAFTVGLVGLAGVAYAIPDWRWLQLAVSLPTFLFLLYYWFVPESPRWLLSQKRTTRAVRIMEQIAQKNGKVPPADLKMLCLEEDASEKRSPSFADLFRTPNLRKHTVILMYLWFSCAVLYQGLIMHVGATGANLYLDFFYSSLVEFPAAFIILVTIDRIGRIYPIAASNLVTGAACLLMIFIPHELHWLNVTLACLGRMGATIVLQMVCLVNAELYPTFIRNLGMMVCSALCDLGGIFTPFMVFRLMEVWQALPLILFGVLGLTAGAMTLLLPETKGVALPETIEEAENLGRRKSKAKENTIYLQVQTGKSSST

[3] = target: T1, Solute carrier family 22 member 3; assay: TP_TRANSPORTER: inhibition of TEA uptake (TEA: 20 uM) in OCT3-expressing HRPE cells; format: functional, cell-based
[4] = target: T1, Solute carrier family 22 member 3; assay: TP_TRANSPORTER: inhibition of Dopamine uptake (Dopamine: 0.15 uM, Cocaine: 100 uM) in OCT3-expressing HRPE cells; format: functional, cell-based; conditions: human
[5] = target: T3, Solute carrier family 22 member 2 (Rattus norvegicus, UniProt Q9R0W2); assay: TP_TRANSPORTER: inhibition of TEA uptake (TEA: 20 uM) in OCT2-expressing HRPE cells; format: functional, cell-based
T3 sequence (Q9R0W2 whole entry): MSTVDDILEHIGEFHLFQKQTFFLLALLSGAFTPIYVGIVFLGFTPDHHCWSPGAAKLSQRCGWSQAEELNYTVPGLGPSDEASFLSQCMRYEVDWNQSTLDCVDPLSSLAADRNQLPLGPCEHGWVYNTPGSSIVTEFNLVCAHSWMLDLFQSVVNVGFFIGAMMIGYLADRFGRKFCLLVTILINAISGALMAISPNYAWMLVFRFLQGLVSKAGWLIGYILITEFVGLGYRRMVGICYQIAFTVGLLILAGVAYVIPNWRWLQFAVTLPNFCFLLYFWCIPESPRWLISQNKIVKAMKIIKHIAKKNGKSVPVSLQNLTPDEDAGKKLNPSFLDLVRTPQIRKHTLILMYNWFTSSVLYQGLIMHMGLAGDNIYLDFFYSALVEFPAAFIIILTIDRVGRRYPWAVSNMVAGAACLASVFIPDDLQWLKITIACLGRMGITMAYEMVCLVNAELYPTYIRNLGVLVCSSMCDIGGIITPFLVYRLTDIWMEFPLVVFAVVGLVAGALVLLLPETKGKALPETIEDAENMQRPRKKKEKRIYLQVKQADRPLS

[6] = target: T2, Solute carrier family 22 member 1; assay: TP_TRANSPORTER: inhibition of TEA uptake (TEA: 20 uM, Deoxycorticosterone: 100 uM) in OCT1-expressing HRPE cells; format: functional, cell-based; conditions: human
[7] = target: T1, Solute carrier family 22 member 3; assay: (§1) TP_TRANSPORTER: uptake in OCT3-expressing HRPE cells; format: functional, cell-based; conditions: human
[8] = target: T2, Solute carrier family 22 member 1; assay: TP_TRANSPORTER: inhibition of TEA uptake (TEA: 20 uM, beta-Estradiol: 100 uM) in OCT1-expressing HRPE cells; format: functional, cell-based; conditions: human
[9] = target: T2, Solute carrier family 22 member 1; assay: TP_TRANSPORTER: inhibition of TEA uptake in OCT1-expressing HRPE cells; format: functional, cell-based; conditions: human
[10] = target: T2, Solute carrier family 22 member 1; assay: TP_TRANSPORTER: inhibition of TEA uptake (TEA: 20 uM, Testosterone: 100 uM) in OCT1-expressing HRPE cells; format: functional, cell-based; conditions: human
[11] = substrate: C[n+]1ccc(-c2ccccc2)cc1; assay: as §1; format: functional, cell-based
[12] = substrate: C[n+]1ccc(-c2ccccc2)cc1; assay: TP_TRANSPORTER: uptake (electrogenesis, -50mV) in Xenopus laevis oocytes; format: functional, cell-based, Oocyte

Row | Molecule | IC50 [1] | IC50 [3] | IC50 [5] | further results
1 | CC(N)Cc1ccccc1 (stereo unspecified) [AMPHETAMINE] | 42 µM | – | – | –
2 | C[C@]12C[C@H](O)[C@H]3[C@@H](CCC4=CC(=O)CC[C@@]43C)[C@@H]1CC[C@@H]2C(=O)CO [CORTICOSTERONE] | – | 4.9 µM | 4.2 µM | Activity [2]: is not an inhibitor [-]; Activity [4]: inhibitor [(at a rough estimate) 5 % of control]
3 | CNCCCN1c2ccccc2CCc2ccccc21 [DESIPRAMINE] | 68 µM | – | – | –
4 | C[C@]12CC[C@H]3[C@@H](CCC4=CC(=O)CC[C@@]43C)[C@@H]1CC[C@@H]2C(=O)CO [DESOXYCORTICOSTERONE] | – | 8.4 µM | 1.9 µM | Activity [6]: is not an inhibitor [-]
5 | NCCc1ccc(O)c(O)c1 [DOPAMINE] | 62 µM | 384 µM | 2300 µM | Activity [7]: substrate [+]
6 | C[C@]12CC[C@@H]3c4ccc(O)cc4CC[C@H]3[C@@H]1CC[C@@H]2O [ESTRADIOL] | – | 1.1 µM | 84.8 µM | Activity [8]: is not an inhibitor [-]
7 | CN[C@@H](C)Cc1ccccc1 [METHAMPHETAMINE] | 248 µM | – | – | –
8 | NC[C@H](O)c1ccc(O)c(O)c1 [NOREPINEPHRINE] | – | 434 µM | 11000 µM | –
9 | CC(=O)[C@H]1CC[C@H]2[C@@H]3CCC4=CC(=O)CC[C@]4(C)[C@H]3CC[C@]12C [PROGESTERONE] | – | 10.5 µM | 1.6 µM | Activity [9]: inhibitor [+]
10 | NCCc1c[nH]c2ccc(O)cc12 [SEROTONIN] | 97 µM | – | – | –
11 | C[C@]12CC[C@H]3[C@@H](CCC4=CC(=O)CC[C@@]43C)[C@@H]1CC[C@@H]2O [TESTOSTERONE] | – | – | – | Activity [10]: is not an inhibitor [-]
12 | B1 | – | – | – | Km [11]: 91 µM; Km [12]: 24 µM

Reference: ChEMBL document CHEMBL2074049, “Identity of the organic cation transporter OCT3 as the extraneuronal monoamine transporter (uptake2) and evidence for the expression of the transporter in the brain” (J Biol Chem, 1998)
